In patent US11078515B2, “Methods for identifying targets for antimicrobial and antiproliferative compounds and compositions therefrom” (MIMETICS, LLC, priority 2015, dated 2021):
“Also recorded” adds a separate entry of the source.

Assays:
Cryptococcus neoformans [1] = assay: Plating assays (colony forming units) after exposure under slow growth conditions; assay type: cell-based
Description: (§1) Here, we determined whether a trehalose-mimetic compound (Validamycin A) produced by a Streptomyces bacterium, could target the trehalose pathway in S. cerevisiae and in C. neoformans, and inhibit their cell division in sub-optimal growth conditions.

Cryptococcus neoformans [2] = assay: Cell division / growth by cell counting in rich versus slow growth (PUD) medium; assay type: cell-based; conditions: 0, 50, 100 mM
Protocol: Left panel: C. neoformans cells were grown in rich medium (YEP+2% (w/v) Dextrose) with 0 mM (black), 50 mM (gray), and 100 mM (dotted) concentrations of Validamycin A. Cells were counted each hour for 6 hours and relative growth per mL was assessed. Right panel: C. neoformans cells were grown for 24 hours in PUD media and then dosed with Validamycin A. Cells were grown in slow growth medium (PUD) with 0 mM (black), 50 mM (gray), and 100 mM (dotted) concentrations of Validamycin A for 7 days and then counted at time intervals shown. Media was changed every 24 hours to fresh media containing the indicated concentration of drug.
as §1

Candida albicans = conditions: rich medium; reference [14]; cited from earlier work

OCC1=C[C@@H](N[C@H]2C[C@H](CO)[C@@H](O[C@H]3O[C@@H](CO)[C@H](O)[C@@H](O)[C@@H]3O)[C@H](O)[C@H]2O)[C@H](O)[C@@H](O)[C@@H]1O [Validamycin A]
colony forming units (Cryptococcus neoformans [1]; cells exposed under slow growth conditions (PUD medium)): substantially reduced | fungicidal activity (plating assays) (Cryptococcus neoformans [1]; slow growth conditions (PUD medium)): fungicidal | effect on division rates / growth (Cryptococcus neoformans [2]; optimal growth conditions, rich medium (YEPD+2% (w/v) Dextrose), counted each hour for 6 hours): no effect; also recorded: not rich medium | effect on division rates / growth (Cryptococcus neoformans [2]; slow growth conditions, PUD medium (PBS, 5 g/L Urea, 0.1% (w/v) dextrose; mimics cerebral spinal fluid), 7 days): severely inhibited; also recorded: inhibited in slow growth medium | efficacy as an antifungal agent against C. albicans (Candida albicans): not effective
